# Literature values in patent US12551486B2, “Rivaroxaban formulation” (Shanghai Auson Pharmaceuticals Co., Ltd., priority 2021, dated 2026).
smiles,measurement,value
"O=C(NC[C@H]1CN(c2ccc(N3CCOCC3=O)cc2)C(=O)O1)c1ccc(Cl)s1 [Rivaroxaban, 5-chloro-N-[[(5S)-2-oxo-3-[4-(3-oxomorpholin-4-yl)phenyl]-1,3-oxazolidin-5-yl]methyl]thiophene-2-carboxamide]",Solubility in water,insoluble in water
